Source: US5593985A, “Cephalosporin compounds” (priority 1994, dated 1997)
Converted amounts (≈) assume the structure as drawn. Read-outs that look alike come from different tables or passages of the source.

Tests used:
Assay type in all cases: cell-based
[1] = test system: Escherichia coli DC 0; experiment: MIC, standard strain 8; details: DC0, E. coli DC 0, two-fold dilution, Muller Hinton agar, 10^7 CFU/ml, 37° C., 18 hours, read-out: Minimal Inhibitory Concentration(MIC)
Experimental: (§1) In order to illustrate antibiotic effectiveness of the compounds of the present invention, the minimal inhibitory concentrations (MIC's) of the representative compounds were determined against standard strains and compared with ceftazidime and cefpirome, which were used as control compounds.
(§2) The MIC values were taken by employing a two-fold dilution method: that is, two-fold serial dilutions of each of the test compounds were made from initial concentration of […]; each 1.5 ml of them was dispersed in 13.5 ml of Muller Hinton agar medium to adjust to […]; the standard test strain which had the concentration of 10^7 CFU/ml was inoculated by medium;and these were incubated at 37° C. for 18 hours.
(§3) The test used twenty kinds of standard test strains which induced urinary tract infections, respiratory organ infections, skin soft tissue infections, plasma infections, gastrointestinal infections, central nervous system infections, most of which produce β-lactamase.

[2] = test system: Pseudomonas aeruginosa 9.027; experiment: MIC, standard strain 12; details: Pseudomonas aeruginosa; P. aeruginosa 9.027; two-fold dilution, Muller Hinton agar, 10^7 CFU/ml, 37° C., 18 hours; read-out: Minimal Inhibitory Concentration(MIC)
Experimental: as §1, §2
as §3, with “β-lactamase. The standard test strains used are as follows:” for “β-lactamase.”
12. Pseudomonas aeruginosa 9.027

[3] = test system: Salmonella typhimurium; experiment: MIC, standard strain 16; details: Salmonella enterica; S. typhimurium; two-fold dilution, Muller Hinton agar, 10^7 CFU/ml, 37° C., 18 hours; read-out: Minimal Inhibitory Concentration(MIC)
Experimental: as §1, §2
as §3, with “β-lactamase. The standard test strains used are as follows:” for “β-lactamase.”
16. Salmonella typhimurium

[4] = test system: Escherichia coli TEM; experiment: MIC, standard strain 10; details: 18 h, read-out: Minimal Inhibitory Concentration(MIC)
Experimental: as §1, §2, §3

[5] = test system: Enterobacter cloacae P 99; experiment: MIC, standard strain 19; details: P99, 18 h, read-out: Minimal Inhibitory Concentration(MIC)
Experimental: as §1, §2
as §3, with “β-lactamase. The standard test strains used are as follows:” for “β-lactamase.”
19. Enterobacter cloacae P 99

[6] = test system: Klebsiella aerogenes 1552 E; experiment: MIC, standard strain 18; details: K. aerogenes 1552 E, two-fold dilution, Muller Hinton agar, 10^7 CFU/ml, 37° C., 18 hours, read-out: Minimal Inhibitory Concentration(MIC)
Experimental: as §1, §2
as §3, with “β-lactamase. The standard test strains used are as follows:” for “β-lactamase.”
18. Klebsiella aerogenes 1552 E

[7] = test system: Pseudomonas aeruginosa 1771; experiment: MIC, standard strain 14; details: Pseudomonas aeruginosa; P. aeruginosa 1771; two-fold dilution, Muller Hinton agar, 10^7 CFU/ml, 37° C., 18 hours; read-out: Minimal Inhibitory Concentration(MIC)
Experimental: as §1, §2
as §3, with “β-lactamase. The standard test strains used are as follows:” for “β-lactamase.”
14. Pseudomonas aeruginosa 1771

[8] = test system: Staphylococcus aureus 285; experiment: MIC, standard strain 5; details: read-out: Minimal Inhibitory Concentration(MIC)
Experimental: as §1, §2
as §3, with “β-lactamase. The standard test strains used are as follows:” for “β-lactamase.”
5. Staphylococcus aureus 285

[9] = test system: Streptococcus pyogenes A 308; experiment: MIC, standard strain 1; details: read-out: Minimal Inhibitory Concentration(MIC)
Experimental: as §1, §2
as §3, with “β-lactamase. The standard test strains used are as follows:” for “β-lactamase.”
1. Streptococcus pyogenes A 308

[10] = test system: Enterobacter cloacae 1321 E; experiment: MIC, standard strain 20; details: E. cloacae 1321 E, two-fold dilution, Muller Hinton agar, 10^7 CFU/ml, 37° C., 18 hours, read-out: Minimal Inhibitory Concentration(MIC)
Experimental: as §1, §2
as §3, with “β-lactamase. The standard test strains used are as follows:” for “β-lactamase.”
20. Enterobacter cloacae 1321 E

[11] = test system: Pseudomonas aeruginosa 1771M; experiment: MIC, standard strain 15; details: 18 h, read-out: Minimal Inhibitory Concentration(MIC)
Experimental: as §1, §2
as §3, with “β-lactamase. The standard test strains used are as follows:” for “β-lactamase.”
15. Pseudomonas aeruginosa 1771M

[12] = test system: Streptococcus pyogenes A 77; experiment: MIC, standard strain 2; details: A77, S. pyogenes A 77, two-fold dilution, Muller Hinton agar, 10^7 CFU/ml, 37° C., 18 hours, read-out: Minimal Inhibitory Concentration(MIC)
Experimental: as §1, §2
as §3, with “β-lactamase. The standard test strains used are as follows:” for “β-lactamase.”
2. Streptococcus pyogenes A 77

[13] = test system: Staphylococcus aureus SG 511; experiment: MIC, standard strain 4; details: SG511, S. aureus SG 511, two-fold dilution, Muller Hinton agar, 10^7 CFU/ml, 37° C., 18 hours, read-out: Minimal Inhibitory Concentration(MIC)
Experimental: as §1, §2
as §3, with “β-lactamase. The standard test strains used are as follows:” for “β-lactamase.”
4. Staphylococcus aureus SG 511

[14] = test system: Escherichia coli 0 55; experiment: MIC, standard strain 7; details: 055, E. coli 0 55, two-fold dilution, Muller Hinton agar, 10^7 CFU/ml, 37° C., 18 hours, read-out: Minimal Inhibitory Concentration(MIC)
Experimental: as §1, §2, §3

[15] = test system: Streptococcus faecium 8b; experiment: MIC, standard strain 3; details: Enterococcus faecium; S. faecium 8b; two-fold dilution, Muller Hinton agar, 10^7 CFU/ml, 37° C., 18 hours; read-out: Minimal Inhibitory Concentration(MIC)
Experimental: as §1, §2
as §3, with “β-lactamase. The standard test strains used are as follows:” for “β-lactamase.”
3. Streptococcus faecium 8b

[16] = test system: Escherichia coli 1507 E; experiment: MIC, standard strain 11; details: E. coli 1507 E, two-fold dilution, Muller Hinton agar, 10^7 CFU/ml, 37° C., 18 hours, read-out: Minimal Inhibitory Concentration(MIC)
Experimental: as §1, §2, §3

[17] = test system: Escherichia coli DC 2; experiment: MIC, standard strain 9; details: DC2, E. coli DC 2, two-fold dilution, Muller Hinton agar, 10^7 CFU/ml, 37° C., 18 hours, read-out: Minimal Inhibitory Concentration(MIC)
Experimental: as §1, §2, §3

[18] = test system: Staphylococcus aureus 503; experiment: MIC, standard strain 6; details: Staphylococcus aureus; S. aureus 503; two-fold dilution, Muller Hinton agar, 10^7 CFU/ml, 37° C., 18 hours; read-out: Minimal Inhibitory Concentration(MIC)
Experimental: as §1, §2
as §3, with “β-lactamase. The standard test strains used are as follows:” for “β-lactamase.”
6. Staphylococcus aureus 503

[19] = test system: Pseudomonas aeruginosa 1592 E; experiment: MIC, standard strain 13; details: P. aeruginosa 1592 E, two-fold dilution, Muller Hinton agar, 10^7 CFU/ml, 37° C., 18 hours, read-out: Minimal Inhibitory Concentration(MIC)
Experimental: as §1, §2
as §3, with “β-lactamase. The standard test strains used are as follows:” for “β-lactamase.”
13. Pseudomonas aeruginosa 1592 E

[20] = Staphylococcus aureus, S. aureus 285, two-fold dilution, Muller Hinton agar, 10^7 CFU/ml, 37° C., 18 hours

| SMILES | MIC [1] [mg/L] | MIC [2] [mg/L] | MIC [3] [mg/L] | MIC [4] [mg/L] | MIC [5] [mg/L] | MIC [6] [mg/L] | MIC [7] [mg/L] | MIC ([9]; A308, 18 h) [mg/L] | MIC [10] [mg/L] | MIC [11] [mg/L] | MIC [12] [mg/L] | MIC [13] [mg/L] | MIC [14] [mg/L] | MIC [15] [mg/L] | MIC [16] [mg/L] | MIC [17] [mg/L] | MIC [18] [mg/L] | MIC [19] [mg/L] | MIC [8, 20] [mg/L] | also measured |
| --- | --- | --- | --- | --- | --- | --- | --- | --- | --- | --- | --- | --- | --- | --- | --- | --- | --- | --- | --- | --- |
| CCOC(=O)c1cc[n+](CC2=C(C(=O)[O-])N3C(=O)[C@@H](NC(=O)/C(=N\OC)c4csc(N)n4)[C@H]3SC2)c2c1CCC2 [Example 1] | 49 (≈ 83.5 µM) | 12500 (≈ 21300 µM) | 49 (≈ 83.5 µM) | 391 (≈ 666 µM) | 25000 (≈ 42600 µM) | 49 (≈ 83.5 µM) | 6250 (≈ 10700 µM) | 7 (≈ 11.9 µM) | 25 (≈ 42.6 µM) | 391 (≈ 666 µM) | 7 (≈ 11.9 µM) | 1560 (≈ 2660 µM) | 49 (≈ 83.5 µM) | 25000 (≈ 42600 µM) | 49 (≈ 83.5 µM) | 25 (≈ 42.6 µM) | 781 (≈ 1330 µM) | 12500 (≈ 21300 µM) |  | MIC ([8]; Staphylococcus aureus, 285, 18 h): 3120 mg/L (≈ 5330 µM) |
| CO/N=C(\C(=O)N[C@@H]1C(=O)N2C(C(=O)[O-])=C(C[n+]3ccc(C(=O)O)c4c3CCC4)CS[C@H]12)c1csc(N)n1 [Example 2] | 49 (≈ 87.7 µM) | 12500 (≈ 22400 µM) | 49 (≈ 87.7 µM) | 781 (≈ 1400 µM) | 100000 (≈ 179000 µM) | 25 (≈ 44.8 µM) | 3120 (≈ 5590 µM) |  | 25 (≈ 44.8 µM) | 391 (≈ 700 µM) | 7 (≈ 12.5 µM) | 6250 (≈ 11200 µM) | 25 (≈ 44.8 µM) | 25000 (≈ 44800 µM) | 25 (≈ 44.8 µM) | 49 (≈ 87.7 µM) | 3120 (≈ 5590 µM) | 12500 (≈ 22400 µM) | 6250 (≈ 11200 µM) | MIC ([9]; A308, S. pyogenes A 308, two-fold dilution, Muller Hinton agar, 10^7 CFU/ml, 37° C., 18 hours): 25 mg/L (≈ 44.8 µM) |
| CCO/N=C(\C(=O)N[C@@H]1C(=O)N2C(C(=O)[O-])=C(C[n+]3ccc(C(N)=O)c4c3CCC4)CS[C@H]12)c1csc(N)n1 [Example 13, 7-β-[(Z)-2-(2-aminothiazol-4-yl)-2-ethoxyiminoacetamido]-3-[(2,3-cyclopenteno-4-carbamoyl-1-pyridinium)methyl]-3-cephem-4-carboxylate] | 98 (≈ 171 µM) | 6250 (≈ 10900 µM) | 49 (≈ 85.7 µM) | 195 (≈ 341 µM) | 12500 (≈ 21900 µM) | 49 (≈ 85.7 µM) | 1560 (≈ 2730 µM) | 13 (≈ 22.7 µM) | 25 (≈ 43.7 µM) | 195 (≈ 341 µM) | 4 (≈ 7 µM) | 781 (≈ 1370 µM) | 25 (≈ 43.7 µM) | 50000 (≈ 87500 µM) | 98 (≈ 171 µM) | 49 (≈ 85.7 µM) | 391 (≈ 684 µM) | 3120 (≈ 5470 µM) | 3120 (≈ 5470 µM) |  |
